The target in test [1] is mitochondrial Complex I (NADH:ubiquinone oxidoreductase). Put plainly: MitoCheck Complex I activity assay (Cayman Chemicals #700930). The class given is biochemical. The source says:
Complex I (NADH:ubiquinone oxidoreductase or NADH dehydrogenase (ubiquinone)) is a complex of enzymes of the respiratory chains that catalyzes the transfer of electrons from NADH to coenzyme Q10 (CoQ10) located in the inner mitochondrial membrane. […] Cancer Medicine, 2013, 2(5): 611-624. […] Interference with mitochondrial function to reduce hypoxia-induced HIF-1 activity in tumors is indicated as a therapeutic approach to overcome chemo- and radiotherapy resistance of hypoxic tumors. Helbig et al. report BAY 87-2243 improves local tumor control after fractionated irradiation in a schedule-dependent manner in head and neck human xenografts. Radiation Oncology 2014, 9:207. Santidrian et al. report mitochondrial complex I activity and NAD+/NADH balance regulate breast cancer progression. J Clin Invest, 2013, 123(3):1068-81. See also Ellinghaus et al., Cancer Med, 2013, 2(5):611-624. Chang et al., Clin Cancer Res, 2015, 21(2):335-46; Fulda et al., Antioxid Redox Signal, 2011, 15:2937-2949; Wenner, J Cell Physiol, 2012, 227:450-456; Fulda et al., Nat Rev Drug Discov, 2010, 9:447-464.
It has been discovered that certain HIF inhibitors disclosed herein are also mitochondrial inhibitors. […] KCN1 induced acidification of media may be due to the consequence of its mitochondrial inhibiting activity. […]

For test [2], the system named is LN229 cells. Put plainly: Toxicity to LN229 cells in the presence of galactose. The class given is cell-based, human. The source says:
To be metabolized, galactose has to be converted into glucose in an energy consuming process that cannot be balanced by glycolytic metabolism. […] KCN1 is toxic to LN229 cells in the presence of galactose. […] Thus, in certain embodiments, the disclosure contemplates administering compounds disclosed herein in combination with a restricted or low glucose diet optionally in combination with galactose.

The test system of test [3] is cell culture media. Put plainly: Acidification of cell culture media (lactate production). The class given is cell-based. The conditions noted are these: due to increased lactate production. The source says: It has been discovered that certain HIF inhibitors disclosed herein are also mitochondrial inhibitors. […] KCN1 induced acidification of media may be due to the consequence of its mitochondrial inhibiting activity. Inhibiting the mitochondrial complex I interferes with the normal functions of the electron transport chain. This in effect can damage DNA and specific components of the mitochondria which leads to cell death through the generation of reactive oxygen species.

In test [4] the test system is HIF-1α. As to conditions: cited from earlier work.
The subject of test [5] is mitochondrial complex I. As to conditions: cited from earlier work.
The subject of test [6] is H460 xenograft. The conditions noted are these: H460 xenograft model; cited from earlier work.
Test [7] deals with LN229HRE-luc/lacZ cells (VEGF HRE, HIF-1 target). Nature of the test: Inhibition of hypoxia-inducible gene expression driven by HRE-reporter construct (firefly luciferase) in glioma cells. The conditions noted are these: Homo sapiens, Glioma cell; firefly luciferase activity in LN229HRE-luc/LacZ cells, 1 hour pretreatment under normoxia, then hypoxia (1% O2); from dose-response curves. The format is cell-based. The method, then: Inhibition of Hypoxia-Inducible Gene Expression Driven by Exogenous HRE-Reporter Constructs in Glioma Cells
LN229HRE-luc/lacZ cells were generated by stably transfecting human LN229 glioma cells with a bidirectional reporter construct (pBIGL-V6R) in which the firefly luciferase and LacZ reporter genes are under the control of 6 head to tail tandem copies of the VEGF HRE (hypoxia-responsive element—endogenous HIF-1 target gene) in rightward orientation (clone LN229V6R#18; Hygro selection […]) as reported in Yin et al. Clinical Cancer Research, 2012, 1-11.
Cells were pretreated with different doses of test compounds or 1% DMSO (final concentration in media) vehicle control for 1 hour under normoxia (21% O2); then incubation continued under normoxia or hypoxia (1% O2) using a hypoxia incubator (Thermo Forma model 3130). Firefly luciferase activities in lysates of LN229HRE-luc/LacZ cells were measured with a Dual-Luciferase Reporter Assay System (Promega) in a 20/20 n Luminometer (Promega). The IC50 (μM) value for each individual compound was established from the dose-response curves.

A value given as a limit tells only on which side of the number the result lay.

Broadly, the IC50 is the concentration that inhibits the measured activity by half.

`COc1ccc(S(=O)(=O)N(Cc2ccc3c(c2)C=CC(C)(C)O3)c2ccccc2)cc1OC` [KCN1]: in test [1], the IC50 was about 15 µM. Besides, the “toxicity to LN229 cells” value in test [2] is given as “toxic”. Moreover, the “acidification of cell culture media” value in test [3] was “strongly acidifies cell culture media”.

As for `Cc1cc(-c2nc(-c3ccc(OC(F)(F)F)cc3)no2)nn1Cc1ccnc(N2CCN(C3CC3)CC2)c1` [BAY 87-2243], in test [4], the HIF-1α inhibition entry was “inhibits HIF-1α”. Further, the “mitochondrial complex I activity inhibition” value in test [5] is reported as “inhibits mitochondrial complex I activity”. For the same compound, the “antitumor activity in vivo” value in test [6] was “Antitumor activity of BAY 87-2243 in vivo was demonstrated”. As to `COc1ccc(C(O)c2cccc(COC3CCN(C(=O)OC(C)(C)C)CC3)c2)cc1OC` (stereo not shown) [6b, Tert-butyl 4-((3-((3,4-dimethoxyphenyl)(hydroxy)methyl)benzyl)oxy)piperidine-1-carboxylate], the half-inhibitory concentration (IC50) in test [7] came to 0.2 µM. On the same count and under the same terms, as for `CCCCOCc1cccc(C(O)c2ccc(OC)c(OCOC)c2)c1` (stereo not shown) [6n], the figure is 0.75 µM. As for `CCCOCc1ccc(C(O)c2ccc(OC)c(OCc3ccccc3)c2)cc1` (stereo not shown) [3p], in test [7], the IC50 was over 5 µM. With `COc1ccc(C(O)c2ccc(CO[C@@H]3CCOC3)cc2)cc1OC` (stereo partly shown) [3b], in test [7], the IC50 was 3.4 µM. Take `COc1ccc(C(O)c2ccc(-c3ccccc3)cc2)cc1OC` (stereo not shown) [24f]: the 50% inhibitory concentration (IC50) in test [7] is over 5 µM. Still for that read-out and setting: as for `CCOCc1ccc(C(O)c2ccc(OC)c(OC)c2)cc1` (stereo not shown) [3k], the figure is over 5 µM; as for `CCCCOCc1cccc(C(O)c2ccc(OC)c(OCCCC)c2)c1` (stereo not shown) [6o], 1 µM.
